In US20220273823A1, “THERANOSTIC CONJUGATES” (Ariel Scientific Innovations Ltd., priority 2019, published 2022):
Like-named read-outs stand apart in the source and are kept apart here.

What was measured:
[1] = test system: Panc-1; assay: XTT cell survival assay (growth inhibition), Panc-1; assay type: cell-based, human; details: Panc-1, XTT, up to 25 μM
Description: (§1) The cytotoxicity of the peptide-drug conjugates was determined by measuring the mitochondrial enzyme activity, using a commercial XTT assay kit. All samples were prepared in PBS pH 7.4 contained 3% DMSO. The Cells were cultured in micro wells at a concentration 5-10×10^4 cells/well. The cells were washed and fresh cell medium containing different concentrations (up to 25 μM) of the conjugates were added and the cells were incubated for 10 minutes. The cultures were washed and then given a fresh medium and cultured for 48 hours and 72 hours. At the end of the second incubation, XTT reagent was added and the cells were re-incubated for additional 2-4 hours. During that time the absorbencies in the wells were measured with a TECAN Infinite M200 ELISA reader at 480 nm and 680 nm. The difference in the absorbencies measurements at these two wavelengths was used for calculating the percentage Growth Inhibition (GI) in test wells compared to two controls: cells that were exposed to the medium and solvent, and those which were exposed to a solvent-free medium. All the tests were done in triplicate.

[2] = test system: CHO; assay: XTT cell survival assay (growth inhibition), CHO; assay type: cell-based, Chinese hamster; details: up to 25 μM
Description: as §1

[3] = Spectral properties of RD, IRD-CLB and 5-CLB in PB and CM; assay type: physicochemical
Description: The spectral properties of the dye RD and its conjugates IRD-CLB and 5-CLB were measured at the concentrations (c) of 0.6 μM in 10 mM phosphate buffer pH 7.5 (PB) and cell medium pH 7.5 (CM), both containing 20% of acetonitrile (ACN) to improve solubility of the compounds.
Table 2 presents the absorption (λmaxAb) and emission (λmaxFl) maxima, extinction coefficients (ε) and fluorescence quantum yields (ΦF) of the RD dye and IRD-CLB and 5-CLB conjugates measured at 25° C. in 10 mM phosphate buffer pH 7.5 (PB) and cell medium pH 7.5 (CM).
The biodegradable ester linker (BL) in IRD-CLB and 5-CLB can be hydrolyzed to release free CLB and, accordingly, IRD turns into RD, which is accompanied by a noticeable change in the spectral properties. The time-dependent emission spectra were recorded in PB and CM (see, FIGS. 9A-D) using the excitation wavelengths 720 nm and 532 nm. The first one enabled monitoring of the decrease in the concentration of IRD-CLB and 5-CLB, while the second one—the increase in the concentration of RD and OctA-RD. Only the NIR fluorescence of IRD-CLB and 5-CLB was detected, when excited at 720 nm; and only the red fluorescence of RD and OctA-RD was detected, when excited at 532 nm.
Absorption spectra were recorded on a Jasco V-730 UV-Vis spectrophotometer and the fluorescence spectra were measured on Edinburgh FS5 spectrofluorometer. The absorption and fluorescence spectra and the quantum yields (ΦF) were measured in a 1-cm quartz cell at ˜0.5 μM dye concentrations in PB 10 mmol buffer pH 7.4 at 25° C. and cell medium pH 7.4. Excitation wavelength was 720 nm and 532 nm. The recorded fluorescence spectra were corrected using the wavelength-dependent instrument sensitivity coefficients. Absorption and emission maxima were measured with accuracy of ±0.3 nm and ±0.5 nm, respectively, and rounded. For the determination of the quantum yields, the integrated relative intensities were measured versus ICG™ in methanol as the reference (ΦF=0.043) and Cy3™ in PBS (ΦF=0.043). The absorbance values measured for the samples and the reference at the excitation wavelength were 0.04-0.06 measured in a 1-cm cell. The absolute quantum yields were calculated according to Equation 1.

[4] = Absorption and emission spectra of XCy, XCy-CLB and OCTA-G-XCy-CLB in PB and CM; assay type: physicochemical; details: for λmaxFl: λex 650 nm; for absorption maximum / fluorescence: in PB and CM
Description: The absorption and emission spectra of XCy, XCy-CLB and OCTA-G-XCy-CLB were investigated in two different conditions, 10 mM phosphate buffer pH 7.4 containing 10% methanol (PB) and cell medium pH 7.4 containing 10% methanol (CM) (see, Table 1 below). CM was taken as a model of normal physiological conditions during drug delivery in the experiments with cells. A RPMI-1640 standard cell medium that contains 50 mL fetal bovine serum (FBS), 5 mL penicillin (10,000 U/mL), 5 mL streptomycin (10 mg/mL), 5 mL of 200 mM glutamine, and 5.3 mg/L phenol red indicator was utilized. FBS contains enzyme aspartate-aminotransferase that facilitates the ester bond cleavage.
(§2) Absorption spectra were recorded on a Jasco V-730 UV-Vis spectrophotometer and the fluorescence spectra were measured on Edinburgh FS5 spectrofluorometer. The absorption and fluorescence spectra were measured in 1-cm quartz cells at about 0.5 μM dye concentrations in PB 10 mmol buffer pH 7.4 at 25° C. and cell medium pH 7.4. Excitation wavelength was 650 nm. All the solutions were filtered in PVDF 0.45 μm filter before taking spectrum.

[5] = Time-dependent absorption/fluorescence CLB cleavage profiles of XCy-CLB and OCTA-G-XCy-CLB in PB and cell medium; assay type: in vitro ADME; details: read-out: CLB release half-life τ1/2 (converted)
Description: To estimate the rate of the CLB release, the time-dependent absorption and fluorescence spectra of XCy-CLB and OCTA-G-XCy-CLB were measured in PB and CM (see, FIGS. 5A-H). With respect to time, the absorption band at about 600 nm decreases, a new band at about 680 nm increases and a fluorescence band subsequently appears at ˜708 nm (λex=650 nm).
Based of the time-dependent absorption and emission spectra, corresponding drug cleavage profiles were obtained (see, FIGS. 6A-B) and the drug release rates were quantified by half-lives (τ1/2). The cleavage profiles and half-lives obtained spectrophotometrically and spectrofluorometrically almost coincide. […] The release of CLB from OCTA-G-XCy-CLB in CM (τ1/2˜25 min) is […] faster than that in PB τ1/2 ˜2.5 h. Thus, the drug release for both XCy-CLB and OCTA-G-XCy-CLB in CM is much faster compared to PB. The obtained half-lives of the ester bond cleavage in these media were found in good agreement with some reported data. Linkage of OCTA to the conjugate accelerates the drug release by factor of 6 in PB and 1.3 in CM.
as §2

[6] = Real time fluorescence microscopy monitoring of CLB release in Panc-1 cells; assay type: cell-based; details: human, pH 7.4, Panc-1, 10 min incubation with 10 μM, 37° C., read-out: CLB cleavage half-life τ1/2
Description: (§3) In the next step, the inventors investigated the performance of OCTA-G-XCy-CLB in real time monitoring of drug delivery and drug release into human pancreatic cancer cell line (Panc-1). As a negative control, Chinese hamster ovary cell line (CHO) was employed. Panc-1 contains overexpressed somatostatin receptors SSTR-2 and SSTR-5 while the CHO has the decreased number of these receptors. Panc-1 and CHO were incubated at 37° C. for 10 min with 10 μM OCTA-G-XCy-CLB in PBS pH 7.4 containing 3% DMSO and washed thoroughly with PBS pH 7.4 to remove excess conjugate. Then the fluorescence microscopy images were taken over time (FIGS. 7A, B). The fluorescence intensities for both cell lines gradually increase over time signaling the CLB release. […]
(§4) To monitor drug release, Panc-1 and CHO cell lines were grown in six-well culture plates and then washed with PBS (pH 7.4) two times after that incubated for 10 min with 10 μM OCT(N)-G-XCy-CLB in PBS pH 7.4 containing 3% DMSO. […] The washed cell samples were resuspended in PBS and immediately analyzed the fluorescence changes by using fluorescent microscope. […]
(§5) The band intensities in a representative experiment were quantified by creating region of interest (ROI) around each image and the relative fluorescence intensity of each sample was measured (via the “Measure” function) with Image J software.

[7] = Real time fluorescence microscopy monitoring of CLB release in CHO cells (negative control); assay type: cell-based, Chinese hamster; details: hamster, pH 7.4, 10 min incubation with 10 μM, 37° C., read-out: CLB cleavage half-life τ1/2 (converted)
Description: as §3, §4, §5

[8] = PB:ACN (4:1, v/v), 25° C., c=0.6 μM
[9] = CM: cell medium pH 7.4 containing 10% methanol
[10] = PB: 10 mM phosphate buffer pH 7.4 containing 10% methanol

In the case of `O=C(O)CCCc1ccc(N(CCCl)CCCl)cc1` [CLB, chlorambucil], the “Growth Inhibition (GI) / toxicity” value [1] was “neither free OCT, nor free CLB exhibited detectible toxicity” and the “Growth Inhibition (GI) / toxicity” value [2] was “neither free OCT, nor free CLB exhibited detectible toxicity”.

With `C[N+]1=C(C=CC2=C(OC(=O)CCCc3ccc(N(CCCl)CCCl)cc3)C(=CC=C3N(CCCCCC(=O)O)c4ccccc4C3(C)C)CCC2)C(C)(C)c2ccccc21` [IRD-CLB, 2-(−2-(−2-((4-(4-(bis(2-chloroethyl)amino)phenyl)butanoyl)oxy)-3-(2-(−1-(5-carboxypentyl)-3,3-dimethylindolin-2-ylidene)ethylidene)cyclohex-1-en-1-yl)vinyl)-1,3,3-trimethyl-3H-indol-1-ium] the ΦF ([3]; CM:ACN (4:1, v/v), 25° C.) was 6.3%, the λmaxAb ([3]; CM:ACN (4:1, v/v), 25° C.) was 785 nm and the λmaxFl ([3]; CM:ACN (4:1, v/v), 25° C.) was 805 nm. The “emission when excited at 532 nm” value ([3]; PB and CM) was “no detectable emission”, the ΦF ([3]; PB:ACN (4:1, v/v), 25° C.) was 2.9% and the ε ([3]; PB:ACN (4:1, v/v), 25° C.) was 160,000 M^−1cm^−1. It also gave a λmaxFl ([3]; PB:ACN (4:1, v/v), 25° C.) of 795 nm and a λmaxAb [3, 8] of 775 nm.

With `C[C@@H](O)[C@H](NC(=O)[C@@H]1CSSC[C@H](NC(=O)[C@H](Cc2ccccc2)NC(=O)CCCNC(=O)CCCCC[N+]2=C(/C=C/C3=C4Oc5cc(OC(=O)CCCc6ccc(N(CCCl)CCCl)cc6)ccc5C=C4CCC3)C(C)(C)c3ccccc32)C(=O)N[C@@H](Cc2ccccc2)C(=O)N[C@@H](Cc2c[nH]c3ccccc23)C(=O)N[C@@H](CCCCN)C(=O)N[C@@H]([C@@H](C)O)C(=O)N1)C(N)=O` [OCTA-G-XCy-CLB] the λmaxAbs [4, 9] was 604 nm, the λmaxFl [4, 9] was “No fl” and the λmaxAbs [4, 10] was 604 nm. The λmaxFl [4, 10] was “No fl”, the absorption maximum [4] was about 600 nm and the fluorescence [4] was “not detectable”. For the same molecule, the half-life at 0.5 μM ([5]; bovine, cell medium (contains esterase), in CM (cell medium pH 7.4, esterase present)) was about 0.417 h, the half-life at 0.5 μM ([5]; phosphate buffer (PB), in PB pH 7.4) was about 2.5 h and the half-life at 10 μM [6] was about 0.417 h. The half-life at 10 μM [7] was about 2.5 h and the “Growth Inhibition (GI) / toxicity” value [1] was “significantly elevated growth inhibition compared to CHO”.

For `CN1C(=CC=C2CCCC(=CC=C3N(CCCCCC(=O)O)c4ccccc4C3(C)C)C2=O)C(C)(C)c2ccccc21` [RD, 6-(−3,3-dimethyl-2-(−2-(−2-oxo-3-(2-(−1,3,3-trimethylindolin-2-ylidene)ethylidene)cyclohexylidene)ethylidene)indolin-1-yl)hexanoic acid], the ΦF ([3]; CM:ACN (4:1, v/v), 25° C.) was 2.6%, the λmaxAb ([3]; CM:ACN (4:1, v/v), 25° C.) was 526 nm and the λmaxFl ([3]; CM:ACN (4:1, v/v), 25° C.) was 626 nm. It also gave a ΦF ([3]; PB:ACN (4:1, v/v), 25° C.) of 9.9%, a λmaxFl ([3]; PB:ACN (4:1, v/v), 25° C.) of 643 nm and a λmaxAb [3, 8] of 555 nm.

In the case of `CC1(C)C(/C=C/C2=C3Oc4cc(O)ccc4C=C3CCC2)=[N+](CCCCCC(=O)O)c2ccccc21` [XCy, (E)-1-(5-carboxypentyl)-2-(2-(6-hydroxy-2,3-dihydro-1H-xanthen-4-yl)vinyl)-3,3-dimethyl-3H-indol-1-ium], the λmaxAbs [4, 9] was 679 nm, the λmaxFl [4, 9] was 713 nm and the λmaxAbs [4, 10] was 681 nm. The λmaxFl [4, 10] was 708 nm, the absorption maximum [4] was “about 680 nm” and the fluorescence [4] was “around 710 nm”.

For `CC1(C)C(/C=C/C2=C3Oc4cc(OC(=O)CCCc5ccc(N(CCCl)CCCl)cc5)ccc4C=C3CCC2)=[N+](CCCCCC(=O)O)c2ccccc21` [XCy-CLB, (E)-2-(2-(6-((4-(4-(bis(2-chloroethyl)amino)phenyl)butanoyl)oxy)-2,3-dihydro-1H-xanthen-4-yl)vinyl)-1-(5-carboxypentyl)-3,3-dimethyl-3H-indol-1-ium], the λmaxAbs [4, 9] was 602 nm, the λmaxFl [4, 9] was “No fl” and the λmaxAbs [4, 10] was 598 nm. For the same molecule, the λmaxFl [4, 10] was “No fl”, the absorption maximum [4] was about 600 nm and the fluorescence [4] was “not detectable”. The half-life ([5]; bovine, in CM (cell medium pH 7.4, esterase present)) was about 0.667 h and the half-life ([5]; phosphate buffer, in PB pH 7.4) was about 8 h.

In the case of octreotide amide, the “Growth Inhibition (GI) / toxicity” value [1] was “neither free OCT, nor free CLB exhibited detectible toxicity” and the “Growth Inhibition (GI) / toxicity” value [2] was “neither free OCT, nor free CLB exhibited detectible toxicity”.
